pIC50: −log10 of the molar value.
Molecular target: T1, Ectonucleotide pyrophosphatase/phosphodiesterase family member 1 (Homo sapiens, UniProt P22413)
T1 sequence (P22413 whole entry): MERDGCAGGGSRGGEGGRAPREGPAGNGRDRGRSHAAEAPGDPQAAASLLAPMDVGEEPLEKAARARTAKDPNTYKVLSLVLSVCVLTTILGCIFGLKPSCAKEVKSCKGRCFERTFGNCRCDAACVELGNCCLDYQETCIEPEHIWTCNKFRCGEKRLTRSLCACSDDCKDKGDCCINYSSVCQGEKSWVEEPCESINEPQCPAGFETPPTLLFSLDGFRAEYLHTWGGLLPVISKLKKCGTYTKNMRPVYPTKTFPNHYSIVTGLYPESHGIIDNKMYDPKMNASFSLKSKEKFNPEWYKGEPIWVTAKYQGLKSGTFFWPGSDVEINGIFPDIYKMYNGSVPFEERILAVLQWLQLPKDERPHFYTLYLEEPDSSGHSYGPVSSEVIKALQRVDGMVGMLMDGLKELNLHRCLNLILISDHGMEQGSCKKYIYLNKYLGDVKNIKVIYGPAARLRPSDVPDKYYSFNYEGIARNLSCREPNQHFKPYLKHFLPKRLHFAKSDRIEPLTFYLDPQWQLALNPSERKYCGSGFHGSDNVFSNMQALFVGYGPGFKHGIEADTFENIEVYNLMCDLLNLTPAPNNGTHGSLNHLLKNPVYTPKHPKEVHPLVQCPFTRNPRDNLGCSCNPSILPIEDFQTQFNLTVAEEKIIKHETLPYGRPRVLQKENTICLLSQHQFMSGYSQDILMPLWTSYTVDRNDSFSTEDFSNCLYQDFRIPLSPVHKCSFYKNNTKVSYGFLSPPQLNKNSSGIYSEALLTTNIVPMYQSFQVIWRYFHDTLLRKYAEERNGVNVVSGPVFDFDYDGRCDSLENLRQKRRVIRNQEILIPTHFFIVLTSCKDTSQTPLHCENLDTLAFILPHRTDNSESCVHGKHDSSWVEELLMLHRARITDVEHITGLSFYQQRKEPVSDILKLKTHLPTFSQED
Assay: ENPP1 Inhibitory Activity Assay

SMILES	pIC50
COc1ccc2c(Oc3ccc(C(C)(C(=O)NO)C(C)C)cc3)ccnc2n1 (configuration not stated) [US20240383893, Compound 165]	7.64
COc1ccc2c(Oc3ccc(C(C(=O)NO)C(C)C)cc3)ccnc2n1 (configuration not stated) [US20240383893, Compound 130]	8.16
